# According to patent publication US8217032B2, “Selective estrogen receptor modulators for the treatment of vasomotor symptoms” (Eli Lilly and Company, priority 2004, dated 2012):
# Tests used:
# [1] = system: ovariectomized Sprague-Dawley rats; test: Morphine withdrawal, rat hot flash model; type: in vivo; details: LRL data
# Description: Morphine withdrawal, rat hot flash model: Simpkins et al. (1983) first published morphine withdrawal in the rat as a putative model for hot flashes, based on observations highlighting the similarity of symptoms of gonadal steroid withdrawal to those of opioid withdrawal. Although less severe, the signs and symptoms associated with clinical hot flashes, or estrogen deficiency, in the rat parallel those produced by naloxone-precipitated withdrawal in morphine dependent rats, including: 1) an increase in tail skin temperature, 2) a surge in luteinizing hormone and 3) an increase in heart rate. Each of these responses are associated with an increase in sympathetic outflow, which is a current mechanistic hypothesis for hot flashes. […] A key feature of animal models, is that they mimic the treatment efficacy observed with the human disease. The morphine withdrawal hot flash model, either in its originally described form, or with the modifications described herein, is responsive to agents typically used in the treatment of human hot flashes. This includes various forms of estrogen (Simpkins et al., 1983; LRL data), clonidine (LRL data), tibolone (LRL data), and medroxyprogesterone (LRL data). Furthermore, the model is sensitive to agents known to be associated with the induction of hot flashes in postmenopausal women.
# A modification of the original procedure of Simpkins et al. (1983) is used which employs ovariectomized Sprague-Dawley rats. […]
# On day 21 post-ovariectomy, animals are given […] (80 mg/kg; IM) 2-hours after final administration of the test compound. […] Temperature monitoring is initiated 30 minutes after administration of […] and is recorded every 15 seconds for a 1-hr period. […] A sharp rise in tail skin temperature typically occurs within 5 minutes post-naloxone injection, and two quantitative endpoints are made: 1) tail skin temperature at 15 min post-naloxone, and 2) area under the temperature response curve for the 45-min post-naloxone measurement period. […] Uteri are also removed at this time, and wet weight recorded.
# [2] = Phase III clinical studies; cited from earlier work
Compound,responsiveness of the morphine withdrawal hot flash model to agents typically used in the treatment of human hot flashes [1],incidence of hot flash compared to placebo [2]
Clc1cccc(Cl)c1N=C1NCCN1 [clonidine],responsive,–
O=C(c1ccc(OCCN2CCCCC2)cc1)c1c(-c2ccc(O)cc2)sc2cc(O)ccc12 [raloxifene],–,slight increased incidence of hot flash
C#C[C@]1(O)CC[C@H]2[C@@H]3[C@H](C)CC4=C(CCC(=O)C4)[C@H]3CC[C@@]21C [tibolone],responsive,–
medroxyprogesterone,responsive,–
